According to ChEMBL document CHEMBL1129861, “SAR for MHC class II binding tetrapeptides: Correlation with potential binding site” (Bioorg Med Chem Lett, 1997):
Residues, ends and D or L forms follow the SMILES beside them. *: point of attachment. Ethoxycarbonyl = CCOC(=O)*

Experiments:
HLA-DRB1*01:01 [1] = test: Inhibitory concentration required to inhibit the binding of biotinylated rat myelin basic protein peptide (RMBP90-102) against DR1 allele of class II for 5 hr
HLA-DRB1*01:01 [2] = test: Inhibitory concentration to inhibit the binding of biotinylated rat myelin basic protein peptide (RMBP90-102) against DR1 allele of class II MHC for 20 min
Rattus norvegicus [3] = species: Rattus norvegicus; test: Inhibitory concentration of compound to inhibit the binding of biotinylated rat myelin basic protein peptide (RMBP90-102) against DR4 allele of class II for 20 min; type: functional
Rattus norvegicus [4] = species: Rattus norvegicus; test: Inhibitory concentration of compound to inhibit the binding of biotinylated rat myelin basic protein peptide (RMBP90-102) against DR1 allele of class II for 45 min; type: functional
Rattus norvegicus [5] = species: Rattus norvegicus; test: Inhibitory concentration of compound to inhibit the binding of biotinylated rat myelin basic protein peptide (RMBP90-102) against DR4 allele of class II for 5 hr; type: functional

SMILES | IC50 (HLA-DRB1*01:01 [1]) [nM] | IC50 (HLA-DRB1*01:01 [2]) [nM] | IC50 (Rattus norvegicus [3]) [nM] | IC50 (Rattus norvegicus [4]) [nM] | IC50 (Rattus norvegicus [5]) [nM]
CCOC(=O)N[C@H](Cc1ccc(Cl)cc1)C(=O)N[C@H](C(=O)N[C@@H](C)C(=O)N[C@@H](CC(C)C)C(N)=O)C(C)C | 73 | 19 | – | – | –
CCOC(=O)N[C@H](Cc1ccc(OC)cc1)C(=O)N[C@H](C(=O)N[C@@H](C)C(=O)N[C@@H](CC(C)C)C(N)=O)C(C)C | 180 | 46 | – | – | –
CCOC(=O)N[C@@H](Cc1ccccc1)C(=O)N[C@H](C(=O)N[C@@H](C)C(=O)N[C@@H](CC(C)C)C(N)=O)C(C)C (Ethoxycarbonyl-FVAL-NH2) | – | – | 8200 | – | –
CC(C)C[C@H](NC(=O)[C@H](C)NC(=O)[C@@H](NC(=O)[C@@H](N)Cc1ccccc1)C(C)C)C(N)=O (H-FVAL-NH2) | – | – | – | 1800 | –
CCOC(=O)N[C@H](Cc1cccnc1)C(=O)N[C@H](C(=O)N[C@@H](C)C(=O)N[C@@H](CC(C)C)C(N)=O)C(C)C | 28000 | 5300 | – | – | –
CCOC(=O)N[C@H](CSCc1ccccc1)C(=O)N[C@H](C(=O)N[C@@H](C)C(=O)N[C@@H](CC(C)C)C(N)=O)C(C)C | 7000 | 270 | – | – | –
CCOC(=O)N[C@H](CC(=O)c1ccccc1)C(=O)N[C@H](C(=O)N[C@@H](C)C(=O)N[C@@H](CC(C)C)C(N)=O)C(C)C | 45000 | 5700 | – | – | –
CCOC(=O)N[C@@H](Cc1ccccc1)C(=O)N[C@H](C(=O)N[C@@H](C)C(=O)N[C@@H](CC(=O)O)C(N)=O)C(C)C (Ethoxycarbonyl-FVAD-NH2) | – | – | 1200 | – | 50000
CCOC(=O)N[C@H](Cc1ccc(OC(C)=O)cc1)C(=O)N[C@H](C(=O)N[C@@H](C)C(=O)N[C@@H](CC(C)C)C(N)=O)C(C)C | 1900 | 240 | – | – | –
